Here are results for 31 compounds from US6967196B1, “Sulfonamide compounds and uses thereof” (Bristol-Myers Squibb Company, priority 1999, dated 2005).

Each structure is given as a SMILES string. Where a name gives a salt, the structure may show the parent alone.

One assay deals with amyloid β production in transfected H4 (human neuroglioma) cells stably expressing APP constructs. In words: In vitro cell-based assay of inhibitors of amyloid β production (ELISA). Particulars: Homo sapiens, 16 h, transfected H4 cells stably expressing APP; approximately 16 hours incubation; amyloid β in medium by ELISA; read-out: ACTIVITY (IC50, inhibition of amyloid β production). In outline:
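Test agents are screened at 10-100 μM for about 16 hours on cells stably expressing wild-type or variant APP. Secreted Aβ is measured by ELISA and compared with control-treated cells.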
As for `C[C@H](c1ccccc1OCCCn1ccnc1)N(c1cccc(F)c1)S(=O)(=O)c1ccc(Cl)cc1` [Example 895, 4-chloro-N-(3-fluorophenyl)-N-((1R)-1-{2-[3-(1H-imidazol-1-yl)propoxy]phenyl}ethyl)benzenesulfonamide hydrochloride], the IC50 was above 500 nM.

Turning to `O=S(=O)(c1ccc(Cl)cc1)N(Cc1ccccc1OCCCN1CCCCC1)C1CCCCCC1` [Example 897, 4-chloro-N-cycloheptyl-N-{2-[3-(1-piperidinyl)propoxy]benzyl}benzenesulfonamide hydrochloride], the IC50 is above 500 nM.

For `CCCCOc1ccc(C(=O)N2CCCCC2CCOc2ccccc2CN(c2cc(F)ccc2F)S(=O)(=O)c2ccc(Cl)cc2)cc1` (stereo not shown) [Example 899, N-(2-{2-[1-(4-butoxybenzoyl)-2-piperidinyl]ethoxy}benzyl)-4-chloro-N-(2,5-difluorophenyl)benzenesulfonamide], the IC50 was above 500 nM.

For `O=C(c1ccc(I)cc1)N1CCCCC1CCOc1ccccc1CN(c1cc(F)ccc1F)S(=O)(=O)c1ccc(Cl)cc1` (stereo not shown) [Example 901, 4-chloro-N-(2,5-difluorophenyl)-N-(2-{2-[1-(4-iodobenzoyl)-2-piperidinyl]ethoxy}benzyl)benzenesulfonamide], the 50% inhibitory concentration (IC50) is above 500 nM.

For `COc1ccccc1C(=O)N1CCCCC1CCOc1ccccc1CN(c1cc(F)ccc1F)S(=O)(=O)c1ccc(Cl)cc1` (stereo not shown) [Example 902, 4-chloro-N-(2,5-difluorophenyl)-N-(2-{2-[1-(2-methoxybenzoyl)-2-piperidinyl]ethoxy}benzyl)benzenesulfonamide], the IC50 was above 500 nM.

`O=[N+]([O-])c1ccc(S(=O)(=O)CCCOc2ccccc2CN(c2cc(F)ccc2F)S(=O)(=O)c2ccc(Cl)cc2)cc1` [Example 905, 4-chloro-N-(2,5-difluorophenyl)-N-(2-{3-[(4-nitrophenyl)sulfonyl]propoxy}benzyl)benzenesulfonamide]: the IC50 is above 500 nM.

Turning to `O=S(=O)(c1ccc(Cl)cc1)N(Cc1ccccc1OCCCN1CCCCC1)c1cc(Cl)cnc1Cl` [Example 906, 4-chloro-N-(2,5-dichloro-3-pyridinyl)-N-{2-[3-(1-piperidinyl)propoxy]benzyl}benzenesulfonamide hydrochloride], the IC50 is above 500 nM.

In the case of `C[C@H](c1ccccc1OCCCn1ccnc1)N(c1cc(F)ccc1F)S(=O)(=O)c1ccc(Cl)cc1` [Example 908, 4-chloro-N-(2,5-difluorophenyl)-N-((1R)-1-{2-[3-(1H-imidazol-1-yl)propoxy]phenyl}ethyl)benzenesulfonamide hydrochloride], the IC50 is above 500 nM.

Consider `COc1cccc(C(=O)N2CCCCC2CCOc2ccccc2CN(c2cc(F)ccc2F)S(=O)(=O)c2ccc(Cl)cc2)c1` (stereo not shown) [Example 909, 4-chloro-N-(2,5-difluorophenyl)-N-(2-{2-[1-(3-methoxybenzoyl)-2-piperidinyl]ethoxy}benzyl)benzenesulfonamide], for which the IC50 was above 500 nM.

Consider `CSCCCc1cc(F)ccc1[C@@H](C)N(c1cc(F)ccc1F)S(=O)(=O)c1ccc(SC)cc1` [Example 912, N-(2,5-difluorophenyl)-N-((1R)-1-{4-fluoro-2-[3-(methylsulfanyl)propyl]phenyl}ethyl)-4-(methylsulfanyl)benzenesulfonamide], for which the 50% inhibitory concentration (IC50) is above 500 nM.

As to `O=S(=O)(c1ccc(Cl)cc1)N(Cc1ccccc1OCCCN1CCCC(O)C1)c1ccccc1` (stereo not shown) [Example 915, 4-chloro-N-{2-[3-(3-hydroxy-1-piperidinyl)propoxy]benzyl}-N-phenylbenzenesulfonamide hydrochloride], the concentration for half-maximal inhibition (IC50) is above 500 nM.

Consider `O=C1c2ccccc2C(=O)N1CCCOc1ccccc1CN(c1cc(F)ccc1F)S(=O)(=O)c1ccc(Cl)cc1` [Example 916, 4-chloro-N-(2,5-difluorophenyl)-N-{2-[3-(1,3-dioxo-1,3-dihydro-2H-isoindol-2-yl)propoxy]benzyl}benzenesulfonamide], for which the IC50 was above 500 nM.

Consider `CC(COc1ccccc1CN(c1ccccc1)S(=O)(=O)c1ccc(Cl)cc1)N1CCC1` (stereo not shown) [Example 918, N-{2-[2-(1-azetidinyl)propoxy]benzyl}-4-chloro-N-phenylbenzenesulfonamide hydrochloride], for which the concentration for half-maximal inhibition (IC50) is above 500 nM.

Consider `Cc1cccc(N(Cc2ccccc2OCCCN2CCCCC2)S(=O)(=O)c2ccc(Cl)cc2)c1` [Example 919, 4-chloro-N-(3-methylphenyl)-N-{2-[3-(1-piperidinyl)propoxy]benzyl}benzenesulfonamide hydrochloride], for which the 50% inhibitory concentration (IC50) was above 500 nM.

On to `O=C(c1ccc2c(c1)OCO2)N1CCCCC1CCOc1ccccc1CN(c1cc(F)ccc1F)S(=O)(=O)c1ccc(Cl)cc1` (stereo not shown) [Example 921, N-(2-{2-[1-(1,3-benzodioxol-5-ylcarbonyl)-2-piperidinyl]ethoxy}benzyl)-4-chloro-N-(2,5-difluorophenyl)benzenesulfonamide], for which the half-maximal inhibitory concentration (IC50) is above 500 nM.

Consider `O=S(=O)(c1ccc(Cl)cc1)N(Cc1ccccc1OCCCN1CCC(CO)CC1)c1ccccc1` [Example 922, 4-chloro-N-(2-{3-[4-(hydroxymethyl)-1-piperidinyl]propoxy}benzyl)-N-phenylbenzenesulfonamide hydrochloride], for which the IC50 is above 500 nM.

With `CSc1ccccc1N(Cc1ccccc1OCCCN1CCCCC1)S(=O)(=O)c1ccc(Cl)cc1` [Example 924, 4-chloro-N-[2-(methylsulfanyl)phenyl]-N-{2-[3-(1-piperidinyl)propoxy]benzyl}benzenesulfonamide hydrochloride], the IC50 was above 500 nM.

For `CC1CC(C)CN(CCCOc2ccccc2CN(c2ccccc2)S(=O)(=O)c2ccc(Cl)cc2)C1` (stereo not shown) [Example 926, 4-chloro-N-{2-[3-(3,5-dimethyl-1-piperidinyl)propoxy]benzyl}-N-phenylbenzenesulfonamide hydrochloride], the IC50 was above 500 nM.

On to `O=S(=O)(c1ccc(Cl)cc1)N(Cc1ccccc1OCCC1CCCCN1Cc1cccc(F)c1F)c1cc(F)ccc1F` (stereo not shown) [Example 933, 4-chloro-N-(2-{2-[1-(2,3-difluorobenzyl)-2-piperidinyl]ethoxy}benzyl)-N-(2,5-difluorophenyl)benzenesulfonamide], for which the concentration for half-maximal inhibition (IC50) is above 500 nM.

Regarding `C[C@@H](Oc1ccc(Cl)cc1N(C)S(=O)(=O)c1ccc(Cl)cc1)c1ccc(F)cc1CCCC(=O)O` [Example 935, 4-[2-((1R)-1-{4-chloro-2-[[(4-chlorophenyl)sulfonyl](methyl)amino]phenoxy}ethyl)-5-fluorophenyl]butanoic acid], the IC50 was above 500 nM.

Regarding `CCSCCCc1cc(F)ccc1[C@@H](C)N(c1cc(F)ccc1F)S(=O)(=O)c1ccc(SCC)cc1` [Example 936, N-(2,5-difluorophenyl)-4-(ethylsulfanyl)-N-((1R)-1-{2-[3-(ethylsulfanyl)propyl]-4-fluorophenyl}ethyl)benzenesulfonamide], the IC50 was above 500 nM.

On to `O=S(=O)(c1ccc(Cl)cc1)N(Cc1ccccc1OCCCN1CCSCC1)c1ccccc1` [Example 937, 4-chloro-N-phenyl-N-{2-[3-(4-thiomorpholinyl)propoxy]benzyl}benzenesulfonamide hydrochloride], for which the IC50 was above 500 nM.

Turning to `COc1cc(C(=O)N2CCCCC2CCOc2ccccc2CN(c2cc(F)ccc2F)S(=O)(=O)c2ccc(Cl)cc2)cc(OC)c1OC` (stereo not shown) [Example 938, 4-chloro-N-(2,5-difluorophenyl)-N-(2-{2-[1-(3,4,5-trimethoxybenzoyl)-2-piperidinyl]ethoxy}benzyl)benzenesulfonamide], the half-inhibitory concentration (IC50) is above 500 nM.

For the compound `O=C(c1ccccc1Br)N1CCCCC1CCOc1ccccc1CN(c1cc(F)ccc1F)S(=O)(=O)c1ccc(Cl)cc1` (stereo not shown) [Example 942, N-(2-{2-[1-(2-bromobenzoyl)-2-piperidinyl]ethoxy}benzyl)-4-chloro-N-(2,5-difluorophenyl)benzenesulfonamide], the IC50 was above 500 nM.

Take `O=S(=O)(c1ccc(Cl)cc1)N(Cc1ccccc1OCCCN1CCNCC1)c1ccccc1` [Example 944, 4-chloro-N-phenyl-N-{2-[3-(1-piperazinyl)propoxy]benzyl}benzenesulfonamide dihydrochloride]: the IC50 was above 500 nM.

On to `O=S(=O)(c1ccc(Cl)cc1)N(Cc1cccnc1)Cc1ccccc1OCCCN1CCCCC1` [Example 945, 4-chloro-N-{2-[3-(1-piperidinyl)propoxy]benzyl}-N-(3-pyridinylmethyl)benzenesulfonamide hydrochloride], for which the 50% inhibitory concentration (IC50) was above 500 nM.

The same assay, now with this note: Homo sapiens; transfected H4 cells stably expressing APP; approximately 16 hours incubation; amyloid β in medium by ELISA; read-out: ACTIVITY (IC50, inhibition of amyloid β production).
`CN1C2CCC1[C@@H](COc1ccccc1CN(c1ccccc1)S(=O)(=O)c1ccc(Cl)cc1)C2` (stereo partly drawn) [Example 941, 4-chloro-N-(2-{[(2S)-7-methyl-7-azabicyclo[2.2.1]hept-2-yl]methoxy}benzyl)-N-phenylbenzenesulfonamide hydrochloride]: the IC50 was above 500 nM.

The assay is the same for the next values; noted with them: transfected H4 cells stably expressing APP; approximately 16 hours incubation; amyloid β in medium by ELISA; read-out: ACTIVITY (IC50, inhibition of amyloid β production).
Consider `O=C(OC[C@H](c1ccccc1)N(c1cc(F)ccc1F)S(=O)(=O)c1ccc(Cl)cc1)c1ccncc1` [Example 904, (2S)-2-{[(4-chlorophenyl)sulfonyl]-2,5-difluoroanilino}-2-henylethyl isonicotinate], for which the IC50 was above 500 nM.

For the compound `O=C(/C=C/c1ccccc1CN(c1ccccc1)S(=O)(=O)c1ccc(Cl)cc1)N1CCCC1` [Example 923], the IC50 is above 500 nM.

On to `CC(C)CC(C)C(=O)N(C)CCOc1ccccc1C(C)N(c1cc(F)ccc1F)S(=O)(=O)c1ccc(Cl)cc1` (stereo not shown) [Example 930, N-{2-[2-(1-{[(4-chlorophenyl)sulfonyl]-2,5-difluoroanilino}ethyl)phenoxy]ethyl}-N,2,4-trimethylpentamide], for which the IC50 is above 500 nM.

In the case of `C[C@H](c1ccccc1CN1CCCCC1)N(c1cc(F)ccc1F)S(=O)(=O)c1ccc(Cl)cc1` [Example 939, 4-chloro-N-(2,5-difluorophenyl)-N-{(1R)-1-[2-(1-piperidinylmethyl)phenyl]ethyl}benzenesulfonamide hydrochloride], the IC50 is above 500 nM.
